One data set has as its system rats. The settings on record: rat, in vivo, po, 180 mg/kg.
The subject of the next data set is IFN-γ. Kind of data set: SEB-activated T cell cytokine ELISA, IFN-γ. Format: cell-based, human. Background: In an ELISA, binding on a coated surface is turned into a signal by an enzyme label.
The next data set has as its system Hepatitis B (HBV). Kind of data set: microbe, parasite or virus in culture. Format: cell-based. Particulars: read-out: Dir. Antiviral activity (EC50) HBV.
For data set [1], the system named is human immunodeficiency virus (HIV). Kind of data set: microbe, parasite or virus in culture. In kind it is cell-based. The settings on record: Human immunodeficiency virus 1, read-out: Dir. Antiviral activity (EC50) HIV.
In data set [2] the test system is cells infected with HIV.
The subject of data set [3] is cells infected with Parainfluenza 1.
The subject of a further data set is Parainfluenza (PARA) 3. Kind of data set: organism not typed. Format: cell-based, Parainfluenza 3. Particulars: read-out: Dir. Antiviral activity (EC50) PARA 3.
The next data set relates to Influenza (INFL) A. Kind of data set: microbe, parasite or virus in culture. Format: cell-based. The settings on record: read-out: Dir. Antiviral activity (EC50) INFL. A.
Data set [4] deals with cells infected with Parainfluenza 3.
The test system of another data set is Parainfluenza (PARA) 1. Kind of data set: organism not typed. In kind it is cell-based, Parainfluenza 1. Particulars: read-out: Dir. Antiviral activity (EC50) PARA 1.
The test system of the next data set is TNF-α. Kind of data set: SEB-activated T cell cytokine ELISA, TNF-α. In kind it is cell-based, human.
A further data set deals with IL-2. Kind of data set: SEB-activated T cell cytokine ELISA, IL-2. In kind it is cell-based, human.
Data set [5] has as its system respiratory syncytial virus (RSV). Kind of data set: microbe, parasite or virus in culture. In kind it is cell-based. Particulars: human respiratory syncytial virus, read-out: Dir. Antiviral activity (EC50) RSV.
For data set [6], the system named is cells infected with Influenza A. Kind of data set: Cytotoxicity in Influenza A assay. Format: cell-based. Particulars: read-out: Cytotoxicity (CC50) INFL. A. The procedure: (§1) In vitro testing for direct antiviral activity of Levovirin™ and Ribavirin against influenza A and B, parainfluenza 1 and 2, and respiratory syncytial virus were performed as described in Huffman, J. H. et al. Antiviral Chem. and Chemother. 1997, 8: 75-83 and Barnard, D. L. et al. Antiviral Chem. and Chemother 1997, 8: 223-233. Anti-human immunodeficiency virus activity was assessed by the National Cancer Institute using a procedure designed to detect agents acting at any stage of the virus reproductive cycle [Weislow, O. W. et al., J. Natl. Cancer Inst. 1989, 81: 577-5861. Anti-hepatitis B (HBV) activity was monitored by using an assay as described by Marion et al., Hepatology 1987, 7: 724-731. Anti-HIV activity and cytotoxicity for Ribavirin was determined from previous data [McCormick, J. B., Lancet, 1998, II: 1367-1369.

The test system of data set [7] is cells infected with Influenza B. Kind of data set: Cytotoxicity in Influenza B assay. Format: cell-based. Particulars: read-out: Cytotoxicity (CC50) INFL. B. On the procedure:
as §1

The subject of data set [8] is human immunodeficiency virus (HIV). The settings on record: read-out: Dir. Antiviral activity (EC50) HIV; cited from earlier work.
Data set [9] deals with Concanavalin A induced hepatitis. Format: in vivo. The settings on record: BALB/c mice, single i.p. dose 20 μg (1 mg/kg) 1 hr before i.v. 0.3 mg Con A; serum after 24 hr; PBS control about 1900 U/ml.
Data set [10] relates to cells infected with HIV. Particulars: cited from earlier work.
In another data set the test system is Influenza (INFL) B. Kind of data set: Direct antiviral activity, Influenza B. Format: cell-based. The settings on record: Influenza B virus; read-out: Dir. Antiviral activity (EC50) INFL. B. The procedure: as §1
The nature of data set [11]: Cytotoxicity in Influenza A assay. Format: cell-based. The settings on record: cells infected with Influenza A; read-out: Cytotoxicity (CC50) INFL. A. The procedure: as §1
Data set [12] in a line: Cytotoxicity in Influenza B assay. The settings on record: cells infected with Influenza B; read-out: Cytotoxicity (CC50) INFL. B. Format: cell-based. On the procedure: as §1
[13] abbreviates: SEB stimulated T cells, 48 hrs, 0-10 μM compound, +/- standard deviation, 100% = no effect.

Where two headings read alike, the source gives them in different places.

A word on the EC50: it is the midpoint of the concentration-response curve. Usually CC50 stands for the concentration giving 50% cytotoxicity.

As for `NC(=O)c1ncn([C@H]2O[C@@H](CO)[C@H](O)[C@@H]2O)n1` [Levovirin™, 1-(β-L-ribofuranosyl)-1,2,4-triazole-3-carboxamide], the “Clinical pathology (hemolytic anemia, leukopenia)” value in the data set with rats was “did not produce any observable clinical pathology”. In addition, the “IFN-γ, mean percentage of activated control” value in the data set on IFN-γ amounted to 122 ± 3%. The EC50 was more than 100 µM in the data set with Hepatitis B (HBV); more than 600 µM in data set [1]; more than 1000 µM with Parainfluenza (PARA) 3; more than 200 µM with Influenza (INFL) A; more than 1000 µM with Parainfluenza (PARA) 1; more than 1000 µM in data set [5]. The CC50 with cells infected with HIV [2] was more than 600 µM; in [3], more than 1000 µM; in data set [4], more than 1000 µM; in [6] it was more than 200 µM; in [7], more than 200 µM. Also, the “TNF-α, mean percentage of activated control” value in the data set on TNF-α is given as 144 ± 7%. In the data set with IL-2, the “IL-2, mean percentage of activated control” value is reported as 131 ± 12%.
Consider `NC(=O)c1ncn([C@@H]2O[C@H](CO)[C@@H](O)[C@H]2O)n1` [Ribavirin], for which the “Clinical pathology (hemolytic anemia, leukopenia)” value with rats was “produced significant hemolytic anemia and leukopenia”. Further, the “IFN-γ, mean percentage of activated control” value in the data set on IFN-γ (setting [13]) is reported as 131 ± 6%. The concentration for a half-maximal effect (EC50) is 40 µM in data set [8]; more than 100 µM in the data set on Hepatitis B (HBV); 4 µM in the data set on Parainfluenza (PARA) 3; 6.1 µM with Influenza (INFL) A; 40 µM in the data set with Parainfluenza (PARA) 1; 1.9 µM in the data set with Influenza (INFL) B. For the same compound, the concentration for a half-maximal effect (EC50) in [5] is 5 µM. The “Con A induced serum ALT level” value in data set [9] stood at 969 U/ml. Also, the figures for the cytotoxic concentration (CC50) (in the data set on cells infected with HIV [10]; in data set [11]; in [12]) were more than 40 µM, 56 µM and more than 100 µM, respectively. Also, the “TNF-α, mean percentage of activated control” value in the data set with TNF-α (setting [13]) is on record as 124 ± 4%. Further, the “IL-2, mean percentage of activated control” value with IL-2 (setting [13]) came out at 143 ±18%.

Values taken from patent US20030092644A1, “Treatment of viral infections using levovirin” (priority 2002, published 2003).
